Laboratory results reported in the supplement of paper PMC10307832.

Experiments:
Experiment in all cases: relative viability (nuclei count vs DMSO), 5 days (fraction); higher = more cells survive
DM3189 = compound: C1CN(CCN1)C2=CC=C(C=C2)C3=CN4C(=C(C=N4)C5=CC=NC6=CC=CC=C56)N=C3 [DM3189]
Summary of the method: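 Acceptance criteria were a control CV below 25% and at least one doubling per plate. Lung cancer cell lines in 1536-well plates got five library-drug doses (not always all listed) √10 apart by pinning and were left 5 days with no medium change. Viability divides treated-well nuclei by vehicle-well nuclei and is the median across plates. Nuclei were counted by MetaXpress from 4× Hoechst images.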

DM3189 + Navitoclax = compound: C1CN(CCN1)C2=CC=C(C=C2)C3=CN4C(=C(C=N4)C5=CC=NC6=CC=CC=C56)N=C3 [DM3189] + CC1(C)CCC(c2ccc(Cl)cc2)=C(CN2CCN(c3ccc(C(=O)NS(=O)(=O)c4ccc(N[C@H](CCN5CCOCC5)CSc5ccccc5)c(S(=O)(=O)C(F)(F)F)c4)cc3)CC2)C1 [Navitoclax] (partner 0.5 µM)
Summary of the method: (§1)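 Lung cancer cell lines were pin-tool dosed in 1536-well plates on the day after seeding, with either a lone drug or a fixed anchor-drug dose plus five library-drug doses (not always all listed) in √10 steps. Nuclei were counted on 4× images after 5 days. Relative viability is the ratio of treated-well to vehicle-well nuclei counts, with each value a median of duplicate plates.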

DM3189 + Foretinib = compound: C1CN(CCN1)C2=CC=C(C=C2)C3=CN4C(=C(C=N4)C5=CC=NC6=CC=CC=C56)N=C3 [DM3189] + COc1cc2c(Oc3ccc(NC(=O)C4(C(=O)Nc5ccc(F)cc5)CC4)cc3F)ccnc2cc1OCCCN1CCOCC1 [Foretinib] (partner 0.25 µM)
Summary of the method: as §1

DM3189 + Lapatinib = compound: C1CN(CCN1)C2=CC=C(C=C2)C3=CN4C(=C(C=N4)C5=CC=NC6=CC=CC=C56)N=C3 [DM3189] + CS(=O)(=O)CCNCc1ccc(-c2ccc3ncnc(Nc4ccc(OCc5cccc(F)c5)c(Cl)c4)c3c2)o1 [Lapatinib] (partner 2 µM)
Summary of the method: as §1

DM3189 + Pictilisib = compound: C1CN(CCN1)C2=CC=C(C=C2)C3=CN4C(=C(C=N4)C5=CC=NC6=CC=CC=C56)N=C3 [DM3189] + CS(=O)(=O)N1CCN(Cc2cc3nc(-c4cccc5[nH]ncc45)nc(N4CCOCC4)c3s2)CC1 [Pictilisib] (partner 1 µM)
Summary of the method: as §1

DM3189 + Crizotinib = compound: C1CN(CCN1)C2=CC=C(C=C2)C3=CN4C(=C(C=N4)C5=CC=NC6=CC=CC=C56)N=C3 [DM3189] + C[C@@H](Oc1cc(-c2cnn(C3CCNCC3)c2)cnc1N)c1c(Cl)ccc(F)c1Cl [Crizotinib] (partner 1 µM)
Summary of the method: as §1

DM3189 + Linsitinib = compound: C1CN(CCN1)C2=CC=C(C=C2)C3=CN4C(=C(C=N4)C5=CC=NC6=CC=CC=C56)N=C3 [DM3189] + C[C@]1(O)C[C@@H](c2nc(-c3ccc4ccc(-c5ccccc5)nc4c3)c3c(N)nccn32)C1 [Linsitinib] (partner 1 µM)
Summary of the method: as §1

DM3189 + Alpelisib = compound: C1CN(CCN1)C2=CC=C(C=C2)C3=CN4C(=C(C=N4)C5=CC=NC6=CC=CC=C56)N=C3 [DM3189] + Cc1nc(NC(=O)N2CCC[C@H]2C(N)=O)sc1-c1ccnc(C(C)(C)C(F)(F)F)c1 [Alpelisib] (partner 2 µM)
Summary of the method: as §1

DM3189 + Phenformin = compound: C1CN(CCN1)C2=CC=C(C=C2)C3=CN4C(=C(C=N4)C5=CC=NC6=CC=CC=C56)N=C3 [DM3189] + N=C(N)NC(=N)NCCc1ccccc1 [Phenformin] (partner 250 µM)
Summary of the method: as §1

DM3189 + Decitabine = compound: C1CN(CCN1)C2=CC=C(C=C2)C3=CN4C(=C(C=N4)C5=CC=NC6=CC=CC=C56)N=C3 [DM3189] + Nc1ncn([C@H]2C[C@H](O)[C@@H](CO)O2)c(=O)n1 [Decitabine] (partner 2 µM)
Summary of the method: as §1

DM3189 + Olaparib = compound: C1CN(CCN1)C2=CC=C(C=C2)C3=CN4C(=C(C=N4)C5=CC=NC6=CC=CC=C56)N=C3 [DM3189] + O=C(c1cc(Cc2n[nH]c(=O)c3ccccc23)ccc1F)N1CCN(C(=O)C2CC2)CC1 [Olaparib] (partner 8 µM)
Summary of the method: as §1

A549
relative viability (DM3189; 0.08 µM): 1.06 | relative viability (DM3189; 0.253 µM): 1.06 | relative viability (DM3189; 0.8 µM): 0.993 | relative viability (DM3189; 2.53 µM): 1.08 | relative viability (DM3189 + Navitoclax; first compound 0.08 µM): 1.23 | relative viability (DM3189 + Navitoclax; first compound 0.253 µM): 1.27 | relative viability (DM3189 + Navitoclax; first compound 0.8 µM): 1.28 | relative viability (DM3189 + Navitoclax; first compound 2.53 µM): 1.3 | relative viability (DM3189 + Foretinib; first compound 0.08 µM): 0.989 | relative viability (DM3189 + Foretinib; first compound 0.253 µM): 0.95 | relative viability (DM3189 + Foretinib; first compound 0.8 µM): 0.998 | relative viability (DM3189 + Foretinib; first compound 2.53 µM): 0.976 | relative viability (DM3189 + Lapatinib; first compound 0.08 µM): 0.916 | relative viability (DM3189 + Lapatinib; first compound 0.253 µM): 1.01 | relative viability (DM3189 + Lapatinib; first compound 0.8 µM): 1.01 | relative viability (DM3189 + Lapatinib; first compound 2.53 µM): 1 | relative viability (DM3189 + Pictilisib; first compound 0.08 µM): 0.495 | relative viability (DM3189 + Pictilisib; first compound 0.253 µM): 0.481 | relative viability (DM3189 + Pictilisib; first compound 0.8 µM): 0.48 | relative viability (DM3189 + Pictilisib; first compound 2.53 µM): 0.357 | relative viability (DM3189 + Crizotinib; first compound 0.08 µM): 0.86 | relative viability (DM3189 + Crizotinib; first compound 0.253 µM): 0.763 | relative viability (DM3189 + Crizotinib; first compound 0.8 µM): 0.755 | relative viability (DM3189 + Crizotinib; first compound 2.53 µM): 0.705 | relative viability (DM3189 + Linsitinib; first compound 0.08 µM): 0.654 | relative viability (DM3189 + Linsitinib; first compound 0.253 µM): 0.593 | relative viability (DM3189 + Linsitinib; first compound 0.8 µM): 0.549 | relative viability (DM3189 + Linsitinib; first compound 2.53 µM): 0.545 | relative viability (DM3189 + Alpelisib; first compound 0.08 µM): 0.892 | relative viability (DM3189 + Alpelisib; first compound 0.253 µM): 0.806 | relative viability (DM3189 + Alpelisib; first compound 0.8 µM): 0.812 | relative viability (DM3189 + Alpelisib; first compound 2.53 µM): 0.956 | relative viability (DM3189 + Phenformin; first compound 0.08 µM): 0.151 | relative viability (DM3189 + Phenformin; first compound 0.253 µM): 0.162 | relative viability (DM3189 + Phenformin; first compound 0.8 µM): 0.206 | relative viability (DM3189 + Phenformin; first compound 2.53 µM): 0.136 | relative viability (DM3189 + Decitabine; first compound 0.08 µM): 0.26 | relative viability (DM3189 + Decitabine; first compound 0.253 µM): 0.282 | relative viability (DM3189 + Decitabine; first compound 0.8 µM): 0.251 | relative viability (DM3189 + Decitabine; first compound 2.53 µM): 0.325 | relative viability (DM3189 + Olaparib; first compound 0.08 µM): 0.286 | relative viability (DM3189 + Olaparib; first compound 0.253 µM): 0.332 | relative viability (DM3189 + Olaparib; first compound 0.8 µM): 0.236 | relative viability (DM3189 + Olaparib; first compound 2.53 µM): 0.29
